From patent publication US20190194209A1, “PYRAZOLE CARBOXAMIDE COMPOUNDS AND METHODS OF USE” (Genentech, Inc., priority 2014, published 2019)

Biological target: T1, full length human wildtype Btk (Homo sapiens, UniProt Q06187)
T1 construct: V5 (C); 6xHis (C); made in house; host or cells: Sf9 cells (baculovirus, pFastBac)
Assay: Biochemical Btk Kinase Assay (Example 901)
Conditions: read-out: BTK LC3K (Ki)
Description: Formula I compounds were tested by a standard biochemical Btk, Kinase Assay (Example 901). A generalized procedure for a standard biochemical Btk, Kinase Assay that can be used to test Formula I compounds is as follows. A master mix minus Btk enzyme is prepared containing 1× Cell Signaling kinase buffer (25 mM Tris-HCl, pH 7.5, 5 mM beta-glycerophosphate, 2 mM dithiothreitol, 0.1 mM Na3VO4, 10 mM MgCl2), 0.5 μM Promega PTK Biotinylated peptide substrate 2, and 0.01% BSA. A master mix plus Btk enzyme is prepared containing 1× Cell Signaling kinase buffer, 0.5 μM (micromolar) PTK Biotinylated peptide substrate 2, 0.01% BSA, and 100 ng/well (0.06 mU/well) Btk enzyme. Btk enzyme is prepared as follows: full length human wildtype Btk (accession number NM-000061) with a C-terminal V5 and 6×His tag was subcloned into pFastBac® vector (Invitrogen/Life Technologies) for making baculovirus carrying this epitope-tagged Btk. Generation of baculovirus is done based on Invitrogen's instructions detailed in its published protocol “Bac-to-Bac Baculovirus Expression Systems” (Invitrogen/Life Technologies, Cat. Nos. 10359-016 and 10608-016). Passage 3 virus is used to infect Sf9 cells to overexpress the recombinant Btk protein. The Btk protein is then purified to homogeneity using Ni-NTA column. The purity of the final protein preparation is greater than 95% based on the sensitive Sypro-Ruby staining. A solution of 200 μM ATP is prepared in water and adjusted to pH 7.4 with 1N NaOH. A quantity of 1.25 μL (microliter) of compounds in 5% DMSO is transferred to a 96-well 2 area Costar polystyrene plate. Compounds are tested singly and with an 11-point dose-responsive curve (starting concentration is 10 μM; 1:2 dilution). A quantity of 18.75 μL of master mix minus enzyme (as a negative control) and master mix plus enzyme is transferred to appropriate wells in 96-well 2 area costar polystyrene plate. 5 μL of 200 μM ATP is added to that mixture in the 96-well 2 area Costar polystyrene plate for final ATP concentration of 40 μM. The reaction is allowed to incubate for 1 hour at room temperature. The reaction is stopped with Perkin Elmer 1× detection buffer containing 30 mM EDTA, 20 nM SA-APC, and 1 nM PT66 Ab. The plate is read using time-resolved fluorescence with a Perkin Elmer Envision using excitation filter 330 nm, emission filter 665 nm, and 2nd emission filter 615 nm. IC50 values are subsequently calculated. Alternatively, the Lanthascreen assay can be used to evaluate Btk activity through quantification of its phosphorylated peptide product. The FRET (Fluorescence Resonance Energy Transfer) that occurs between the fluorescein on the peptide product and the terbium on the detection antibody decreases with the addition of inhibitors of Btk that reduce the phosphorylation of the peptide. In a final reaction volume of 25 μL (microliters), Btk (h) (0.1 ng/25 μl reaction) is incubated with 50 mM Hepes pH 7.5, 10 mM MgCl2, 2 mM MnCl2, 2 mM DTT, 0.2 mM NaVO4, 0.01% BSA, and 0.4 uM fluorescein poly-GAT. The reaction is initiated by the addition of ATP to 25 μM (micromolar) the Km of ATP. After incubation for 60 minutes at room temperature, the reaction is stopped by the addition of a final concentration of 2 nM Tb-PY20 detection antibody in 60 mM EDTA for 30 minutes at room temperature. Detection is determined on a Perkin Elmer Envision with 340 nm excitation and emission at 495 nm and 520 nm. Exemplary Btk inhibition […] values are in Table 1.

T1 sequence (Q06187 whole entry): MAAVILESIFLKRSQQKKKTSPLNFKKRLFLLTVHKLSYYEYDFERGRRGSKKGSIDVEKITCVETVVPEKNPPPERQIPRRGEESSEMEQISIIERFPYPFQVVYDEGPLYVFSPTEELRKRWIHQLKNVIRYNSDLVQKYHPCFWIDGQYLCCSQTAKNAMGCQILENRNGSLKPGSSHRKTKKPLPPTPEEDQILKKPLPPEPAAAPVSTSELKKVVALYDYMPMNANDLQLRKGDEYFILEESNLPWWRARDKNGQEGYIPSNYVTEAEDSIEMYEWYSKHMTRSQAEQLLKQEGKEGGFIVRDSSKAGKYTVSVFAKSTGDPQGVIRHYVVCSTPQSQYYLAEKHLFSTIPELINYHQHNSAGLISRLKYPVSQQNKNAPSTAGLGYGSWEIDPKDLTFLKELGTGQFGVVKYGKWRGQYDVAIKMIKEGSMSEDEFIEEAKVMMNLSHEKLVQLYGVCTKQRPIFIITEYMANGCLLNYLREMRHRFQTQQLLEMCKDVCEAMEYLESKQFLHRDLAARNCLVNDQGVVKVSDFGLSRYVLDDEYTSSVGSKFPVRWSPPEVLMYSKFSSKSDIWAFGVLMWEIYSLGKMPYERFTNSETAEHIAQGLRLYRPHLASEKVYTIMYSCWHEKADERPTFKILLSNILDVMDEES

Compound	Ki
CC(C)(C)c1cc(F)c2c(=O)n(-c3nccc(-n4cc(C(N)=O)c(-c5cccnc5)n4)c3CO)ncc2c1 [Example 144, 1-[2-(6-tert-butyl-8-fluoro-1-oxo-phthalazin-2-yl)-3-(hydroxymethyl)-4-pyridyl]-3-(3-pyridyl)pyrazole-4-carboxamide]	124 nM
CN1CCN(c2cc(-c3nn(-c4ccnc(-n5ncc6cc(C(C)(C)C)cc(F)c6c5=O)c4CO)cc3C(N)=O)ccn2)CC1 [Example 136, 1-[2-(6-tert-butyl-8-fluoro-1-oxo-phthalazin-2-yl)-3-(hydroxymethyl)-4-pyridyl]-3-[2-(4-methylpiperazin-1-yl)-4-pyridyl]pyrazole-4-carboxamide]	50.7 nM
CC(C)(C)c1cc(F)c2c(=O)n(-c3nccc(-n4cc(C(N)=O)c(-c5cnc(N)cn5)n4)c3CO)ncc2c1 [Example 129, 3-(5-aminopyrazin-2-yl)-1-[2-(6-tert-butyl-8-fluoro-1-oxo-phthalazin-2-yl)-3-(hydroxymethyl)-4-pyridyl]pyrazole-4-carboxamide]	104 nM
CC(C)(C)c1cc(F)c2c(=O)n(-c3nccc(-n4cc(C(N)=O)c(-c5ccncc5)n4)c3CO)ncc2c1 [Example 143, 1-[2-(6-tert-butyl-8-fluoro-1-oxo-phthalazin-2-yl)-3-(hydroxymethyl)-4-pyridyl]-3-(4-pyridyl)pyrazole-4-carboxamide]	100 nM
CN1CCN(C(=O)c2ccc(-c3nn(-c4ccnc(-n5ncc6cc(C(C)(C)C)cc(F)c6c5=O)c4CO)cc3C(N)=O)cc2)CC1 [Example 131, 1-[2-(6-tert-butyl-8-fluoro-1-oxo-phthalazin-2-yl)-3-(hydroxymethyl)-4-pyridyl]-3-[4-(4-methylpiperazine-1-carbonyl)phenyl]pyrazole-4-carboxamide]	143 nM
CC(=O)Nc1nn(-c2ccnc(N3CCn4c(cc5c4CC(C)(C)C5)C3=O)c2CO)cc1C(N)=O [Example 124, 3-acetamido-1-[2-(7,7-dimethyl-4-oxo-1,2,6,8-tetrahydrocyclopenta[3,4]pyrrolo[3,5-b]pyrazin-3-yl)-3-(hydroxymethyl)-4-pyridyl]pyrazole-4-carboxamide]	13.8 nM
CCCC(=O)Nc1nn(-c2ccnc(N3CCn4c(cc5c4CC(C)(C)C5)C3=O)c2CO)cc1C(N)=O [Example 128, 3-(butanoylamino)-1-[2-(7,7-dimethyl-4-oxo-1,2,6,8-tetrahydrocyclopenta[3,4]pyrrolo[3,5-b]pyrazin-3-yl)-3-(hydroxymethyl)-4-pyridyl]pyrazole-4-carboxamide]	33.9 nM
CC(C)(C)c1cc(F)c2c(=O)n(-c3nccc(-n4cc(C(N)=O)c(-c5cnc6[nH]ccc6c5)n4)c3CO)ncc2c1 [Example 132, 1-[2-(6-tert-butyl-8-fluoro-1-oxo-phthalazin-2-yl)-3-(hydroxymethyl)-4-pyridyl]-3-(1H-pyrrolo[2,3-b]pyridin-5-yl)pyrazole-4-carboxamide]	> 500 nM
CC1(C)Cc2cc3n(c2C1)CCN(c1nccc(-n2cc(C(N)=O)cn2)c1CO)C3=O [Example 113, 1-[2-(7,7-dimethyl-4-oxo-1,2,6,8-tetrahydrocyclopenta[3,4]pyrrolo[3,5-b]pyrazin-3-yl)-3-(hydroxymethyl)-4-pyridyl]pyrazole-4-carboxamide]	124 nM
CC(C)(C)c1cc(F)c2c(=O)n(-c3nccc(-n4cc(C(N)=O)c(-c5ccc(CO)cc5)n4)c3CO)ncc2c1 [Example 141, 1-[2-(6-tert-butyl-8-fluoro-1-oxo-phthalazin-2-yl)-3-(hydroxymethyl)-4-pyridyl]-3-[4-(hydroxymethyl)phenyl]pyrazole-4-carboxamide]	155 nM
C[C@H]1CN(C2COC2)CCN1c1ccc(Nc2nn(-c3ccnc(N4CCn5c(cc6c5CC(C)(C)C6)C4=O)c3CO)cc2C(N)=O)nc1 [Example 125, 1-[2-(7,7-dimethyl-4-oxo-1,2,6,8-tetrahydrocyclopenta[3,4]pyrrolo[3,5-b]pyrazin-3-yl)-3-(hydroxymethyl)-4-pyridyl]-3-[[5-[(2S)-2-methyl-4-(oxetan-3-yl)piperazin-1-yl]-2-pyridyl]amino]pyrazole-4-carboxamide]	0.296 nM
CC(C)(C)c1cc(F)c2c(=O)n(-c3nccc(-n4cc(C(N)=O)c(-c5cncc(S(C)(=O)=O)c5)n4)c3CO)ncc2c1 [Example 139, 1-[2-(6-tert-butyl-8-fluoro-1-oxo-phthalazin-2-yl)-3-(hydroxymethyl)-4-pyridyl]-3-(5-methylsulfonyl-3-pyridyl)pyrazole-4-carboxamide]	> 500 nM
CC(C)Cn1cc(-c2nn(-c3ccnc(-n4ncc5cc(C(C)(C)C)cc(F)c5c4=O)c3CO)cc2C(N)=O)cn1 [Example 134, 1-[2-(6-tert-butyl-8-fluoro-1-oxo-phthalazin-2-yl)-3-(hydroxymethyl)-4-pyridyl]-3-(1-isobutylpyrazol-4-yl)pyrazole-4-carboxamide]	26.9 nM
CC(C)(C)c1cc(F)c2c(=O)n(-c3nccc(-n4cc(C(N)=O)c(-c5ccccc5)n4)c3CO)ncc2c1 [Example 114, 1-[2-(6-tert-butyl-8-fluoro-1-oxo-phthalazin-2-yl)-3-(hydroxymethyl)-4-pyridyl]-3-phenyl-pyrazole-4-carboxamide]	184 nM
CC(C)(C)c1cc(F)c2c(=O)n(-c3nccc(-n4cc(C(N)=O)c(-c5ccc(CN)cc5)n4)c3CO)ncc2c1 [Example 133, 3-[4-(aminomethyl)phenyl]-1-[2-(6-tert-butyl-8-fluoro-1-oxo-phthalazin-2-yl)-3-(hydroxymethyl)-4-pyridyl]pyrazole-4-carboxamide]	156 nM
CC(C)(C)c1cc(F)c2c(=O)n(-c3nccc(-n4cc(C(N)=O)c(-c5cnc6ccccc6c5)n4)c3CO)ncc2c1 [Example 140, 1-[2-(6-tert-butyl-8-fluoro-1-oxo-phthalazin-2-yl)-3-(hydroxymethyl)-4-pyridyl]-3-(3-quinolyl)pyrazole-4-carboxamide]	> 500 nM
CN1CCN(c2ccc(-c3nn(-c4ccnc(-n5ncc6cc(C(C)(C)C)cc(F)c6c5=O)c4CO)cc3C(N)=O)cn2)CC1 [Example 135, 1-[2-(6-tert-butyl-8-fluoro-1-oxo-phthalazin-2-yl)-3-(hydroxymethyl)-4-pyridyl]-3-[6-(4-methylpiperazin-1-yl)-3-pyridyl]pyrazole-4-carboxamide]	15.6 nM
CC(C)(C)c1cc(F)c2c(=O)n(-c3nccc(-n4cc(C(N)=O)c(-c5ccc(O)nc5)n4)c3CO)ncc2c1 [Example 138, 1-[2-(6-tert-butyl-8-fluoro-1-oxo-phthalazin-2-yl)-3-(hydroxymethyl)-4-pyridyl]-3-(6-hydroxy-3-pyridyl)pyrazole-4-carboxamide]	82.7 nM
CC(=O)Nc1ccc(-c2nn(-c3ccnc(-n4ncc5cc(C(C)(C)C)cc(F)c5c4=O)c3CO)cc2C(N)=O)cn1 [Example 137, 3-(6-acetamido-3-pyridyl)-1-[2-(6-tert-butyl-8-fluoro-1-oxo-phthalazin-2-yl)-3-(hydroxymethyl)-4-pyridyl]pyrazole-4-carboxamide]	115 nM
CN(C)CCNC(=O)c1cccc(-c2nn(-c3ccnc(-n4ncc5cc(C(C)(C)C)cc(F)c5c4=O)c3CO)cc2C(N)=O)c1 [Example 130, 1-[2-(6-tert-butyl-8-fluoro-1-oxo-phthalazin-2-yl)-3-(hydroxymethyl)-4-pyridyl]-3-[3-[2-(dimethylamino)ethylcarbamoyl]phenyl]pyrazole-4-carboxamide]	43.8 nM
CC(C)(C)c1cc(F)c2c(=O)n(-c3nccc(-n4cc(C(N)=O)c(-c5cncnc5)n4)c3CO)ncc2c1 [Example 142, 1-[2-(6-tert-butyl-8-fluoro-1-oxo-phthalazin-2-yl)-3-(hydroxymethyl)-4-pyridyl]-3-pyrimidin-5-yl-pyrazole-4-carboxamide]	135 nM
